The target of experiment [1] is 5-hydroxytryptamine receptor 2A (Homo sapiens, UniProt P28223). As to the kind of experiment: Binding affinity at 5-HT2A receptor by radioligand displacement assay.
For experiment [2], the target named is T1, 5-hydroxytryptamine receptor 2C (Homo sapiens, UniProt P28335).
T1 sequence (P28335 whole entry): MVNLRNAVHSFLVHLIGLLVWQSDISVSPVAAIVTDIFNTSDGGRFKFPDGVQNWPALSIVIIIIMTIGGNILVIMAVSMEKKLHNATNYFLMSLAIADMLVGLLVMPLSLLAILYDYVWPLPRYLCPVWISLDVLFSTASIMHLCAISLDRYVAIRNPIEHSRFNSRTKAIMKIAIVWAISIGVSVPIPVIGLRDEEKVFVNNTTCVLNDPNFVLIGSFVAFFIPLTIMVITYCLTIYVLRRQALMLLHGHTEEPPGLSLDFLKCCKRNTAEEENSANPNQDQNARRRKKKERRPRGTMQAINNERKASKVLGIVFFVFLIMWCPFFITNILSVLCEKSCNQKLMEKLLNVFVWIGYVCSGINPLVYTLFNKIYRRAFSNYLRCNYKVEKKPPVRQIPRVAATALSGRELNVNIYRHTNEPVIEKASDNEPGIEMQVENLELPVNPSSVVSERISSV
As to the kind of experiment: Binding affinity at 5-HT2C receptor by radioligand displacement assay.

The next experiment deals with Histamine H1 receptor (Homo sapiens, UniProt P35367). As to the kind of experiment: Displacement of [3H]-Pyrilamine from human histamine H1 receptor by liquid scintillation counter.
For the next experiment, the target named is D(2) dopamine receptor (Homo sapiens, UniProt P14416). As to the kind of experiment: Displacement of [3H]-N-methylspiperone from dopamine D2 receptor expressed in human MES-23.5 cells.
Chain of D(2) dopamine receptor (P14416 whole entry): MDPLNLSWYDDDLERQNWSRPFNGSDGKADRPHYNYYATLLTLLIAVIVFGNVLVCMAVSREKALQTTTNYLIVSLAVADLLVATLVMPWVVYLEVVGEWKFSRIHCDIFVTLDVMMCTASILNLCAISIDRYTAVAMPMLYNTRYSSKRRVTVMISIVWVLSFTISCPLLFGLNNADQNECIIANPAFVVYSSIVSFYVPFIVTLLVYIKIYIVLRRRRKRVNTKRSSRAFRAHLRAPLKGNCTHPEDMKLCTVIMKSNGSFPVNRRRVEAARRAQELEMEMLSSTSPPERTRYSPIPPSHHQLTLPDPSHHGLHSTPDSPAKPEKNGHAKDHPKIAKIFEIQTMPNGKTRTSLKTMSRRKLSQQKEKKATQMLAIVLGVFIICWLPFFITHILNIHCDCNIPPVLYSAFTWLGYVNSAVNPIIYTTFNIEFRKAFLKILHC

Chain of 5-hydroxytryptamine receptor 2A (P28223 whole entry): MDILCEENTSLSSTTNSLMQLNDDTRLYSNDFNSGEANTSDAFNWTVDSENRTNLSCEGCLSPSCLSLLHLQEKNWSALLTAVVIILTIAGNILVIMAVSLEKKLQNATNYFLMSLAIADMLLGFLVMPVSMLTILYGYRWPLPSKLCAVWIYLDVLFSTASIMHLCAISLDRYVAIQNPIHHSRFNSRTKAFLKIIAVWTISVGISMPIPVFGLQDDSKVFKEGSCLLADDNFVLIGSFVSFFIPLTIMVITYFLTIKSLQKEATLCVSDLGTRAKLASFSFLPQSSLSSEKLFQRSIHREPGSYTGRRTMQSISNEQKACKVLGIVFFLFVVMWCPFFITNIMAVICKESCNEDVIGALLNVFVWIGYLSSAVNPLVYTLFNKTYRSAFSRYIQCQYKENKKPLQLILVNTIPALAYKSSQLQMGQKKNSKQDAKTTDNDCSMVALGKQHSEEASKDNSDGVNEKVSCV
Chain of Histamine H1 receptor (P35367 whole entry): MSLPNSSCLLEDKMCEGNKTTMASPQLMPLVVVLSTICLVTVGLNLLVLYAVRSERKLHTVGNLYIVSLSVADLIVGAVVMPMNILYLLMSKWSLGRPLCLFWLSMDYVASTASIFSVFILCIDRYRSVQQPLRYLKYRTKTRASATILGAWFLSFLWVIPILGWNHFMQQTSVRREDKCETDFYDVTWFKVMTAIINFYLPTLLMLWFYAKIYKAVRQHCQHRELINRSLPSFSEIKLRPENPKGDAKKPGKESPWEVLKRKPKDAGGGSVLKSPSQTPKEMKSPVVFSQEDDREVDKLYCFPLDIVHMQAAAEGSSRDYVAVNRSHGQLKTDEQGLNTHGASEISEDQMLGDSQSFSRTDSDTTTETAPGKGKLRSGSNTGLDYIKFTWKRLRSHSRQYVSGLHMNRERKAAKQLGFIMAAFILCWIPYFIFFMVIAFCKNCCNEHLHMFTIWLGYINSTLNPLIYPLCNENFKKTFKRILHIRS

Turning to `OC1(c2ccc(Cl)cc2)C[C@H]2CC[C@@H](C1)N2CCCCc1nc2ccccc2s1` (some centres undefined), the results for the inhibition constant (Ki) (in experiment [1]; in experiment [2]; on Histamine H1 receptor) were greater than 10 µM, 4.62 µM and 0.187 µM, respectively.
`O=C(CCCCN1[C@@H]2CC[C@H]1CC(O)(c1ccc(Cl)cc1)C2)c1nc2ccccc2s1` (some centres undefined): the Ki on D(2) dopamine receptor came to 0.18 µM.

The record behind these values is BindingDB's records for doi:10.1016/j.bmc.2012.01.022 (Florida A&M University, 2012).
